Columns and labels:
[1] = target: T1, vasopressin V2 receptor (rat kidney medullary) (Rattus norvegicus, UniProt Q00788); assay: Binding Assay to Rat Kidney Medullary V2 Receptors; conditions: for inhibition at 10 µM: rat kidney V2
T1 construct: Medullary tissues from rat kidneys are dissected out; from tissue; host or cells: rat kidney medulla membranes
Experimental: Binding Assay to Rat Kidney Medullary V2 Receptors
Medullary tissues from rat kidneys are dissected out, cut into small pieces and soaked in a […] sodium chloride solution containing 1.0 mM EDTA with many changes of the liquid phase, until the solution is clear of blood. […] The tissue is homogenized in a 0.25M sucrose solution containing 1.0 mM EDTA and 0.1 mM PMSF using a Potter-Elvehjem homogenizer with a teflon pestle. The homogenate is filtered through several layers (4 layers) of cheese cloth. The filtrate is rehomogenized using a dounce homogenizer, with a tight fitting pestle. The final homogenate is centrifuged at 1500×g for 15 min. The nuclear pellet is discarded and the supernatant fluid recentrifuged at 40,000×g for 30 min. The resulting pellet formed contains a dark inner part with the exterior, slightly pink. The pink outer part is suspended in a small amount of 50.0 mM Tris.HCl buffer, pH 7.4. The protein content is determined by the Lowry's method (Lowry et al., J. Biol. Chem., 1953). The membrane suspension is stored at -70° C., in 50.0 mM Tris.HCl, containing 0.2% inactivated BSA and 0.1 mM PMSF in aliquots of 1.0 ml containing 10.0 mg protein per ml of suspension until sue in subsequent binding experiments.
For binding experiments, the following is added in ml volume to wells of a 96 well format of a microtiter plate: 100.0 ml of 100.0 mM Tris.HCl buffer containing 0.2% heat inactivated BSA, 10.0 mM MgCL2 and a mixture of protease inhibitors: leupeptin, 1.0 mg %; aprotinin, 1.0 mg % 1,10-phenanthroline, 2.0 mg %; trypsin inhibitor, and 0.1 mM PMSF, 20.0 ml of [^3 H] Arginine^8, vasopressin (S.A. 75.0 Ci/mmole) at 0.8 nM and the reaction initiated by the addition of 80.0 ml of tissue membranes (200.0 mg tissue protein). The plates are left undisturbed on the bench top for 120 minutes to reach equilibrium. Non-specific binding is assessed in the presence of 1.0 mM of unlabeled ligand, added in 20 ml volume. For test compounds, these are solubilized in 50% dimethylsulfoxide (DMSO) and added in 20.0 ml volume to a final incubation volume of […]. Upon completion of binding, the content of each well is filtered off, using a Brandel® cell Harvester (Gaithersburg, Md.). The radioactivity trapped on the filter disk by the ligand-receptor complex is assessed by liquid scintillation counting in a Parkard LS Counter, with an efficiency of 65% for tritium.

[2] = target: T2, vasopressin V1 receptor (rat liver plasma membranes) (Rattus norvegicus, UniProt P30560); assay: Binding Assay to Rat Hepatic V1 Receptors
T2 construct: Rat liver plasma membranes expressing the vasopressin V1 receptor subtypes; from tissue; host or cells: rat liver plasma membranes
T2 sequence (P30560 whole entry): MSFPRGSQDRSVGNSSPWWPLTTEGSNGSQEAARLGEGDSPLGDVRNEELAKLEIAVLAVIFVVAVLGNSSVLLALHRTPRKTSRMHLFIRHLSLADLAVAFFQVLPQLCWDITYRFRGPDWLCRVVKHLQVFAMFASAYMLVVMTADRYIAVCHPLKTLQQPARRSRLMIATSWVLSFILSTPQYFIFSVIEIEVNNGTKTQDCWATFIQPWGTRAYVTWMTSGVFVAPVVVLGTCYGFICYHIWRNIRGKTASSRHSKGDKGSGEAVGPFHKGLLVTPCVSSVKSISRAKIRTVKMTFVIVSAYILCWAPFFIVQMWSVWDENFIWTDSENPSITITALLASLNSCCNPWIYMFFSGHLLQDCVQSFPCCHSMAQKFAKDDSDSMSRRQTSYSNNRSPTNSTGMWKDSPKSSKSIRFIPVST
Experimental: Binding Assay to Rat Hepatic V1 Receptors
Rat liver plasma membranes expressing the vasopressin V1 receptor subtypes are isolated by sucrose density gradient according to the method described by Lesko et al., (1973). These membranes are quickly suspended in 50.0 mM Tris.HCl buffer, pH 7.4, containing 0.2% bovine serum albumin (BSA) and 0.1 mM phenylmethylsulfonylfluoride (PMSF) and kept frozen at -70° C. until used in subsequent binding experiments. For binding experiments, the following is added to the wells of a ninety-six well format microtiter plate: […] of […] buffer containing 10.0 mM MgCl2, 0.2% heat inactivated BSA and a mixture of protease inhibitors: leupeptin, 1.0 mg %; aprotinin, 1.0 mg %; 1,10-phenanthroline,2.0 mg %; trypsin inhibitor, 10.0 mg % and 0.1 mM PMSF, 20.0 ml of [phenylalanyl-3,4,5, -^3 H] vasopressin (S.A. 45.1 Ci/mmole) […], and the reaction initiated by the addition of 80 ml of tissue membranes containing 20 mg of tissue protein. The plates are kept undisturbed on the bench top at room temperature for 120 min. to reach equilibrium. Non-specific samples are assayed in the presence of 0.1 mM of the unlabeled […] phenylalanylvasopressin, added in 20.0 ml volume.
For test compounds, these are solubilized in 50% dimethylsulfoxide (DMSO) and added in 20.0 ml volume to a final incubation volume of […]. Upon completion of binding, the content of each well is filtered off, using a Brandel® cell Harvester (Gaithersburg, Md.). The radioactivity trapped on the filter disk by the ligand-receptor complex is assessed by liquid scintillation counting in a Packard LS Counter, with an efficiency of 65% for tritium.

T1 sequence (Q00788 whole entry): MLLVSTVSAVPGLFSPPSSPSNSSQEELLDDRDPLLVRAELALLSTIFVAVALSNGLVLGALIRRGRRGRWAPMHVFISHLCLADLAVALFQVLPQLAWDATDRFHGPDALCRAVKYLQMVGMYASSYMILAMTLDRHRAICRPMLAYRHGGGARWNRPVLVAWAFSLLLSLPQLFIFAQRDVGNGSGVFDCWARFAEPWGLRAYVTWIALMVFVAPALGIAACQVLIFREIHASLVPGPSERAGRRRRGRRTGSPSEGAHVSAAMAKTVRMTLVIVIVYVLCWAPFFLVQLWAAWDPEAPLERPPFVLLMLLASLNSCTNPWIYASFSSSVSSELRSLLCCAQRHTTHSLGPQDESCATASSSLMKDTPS

| IC50 ([1]; rat kidney medullary V2 receptors) | IC50 ([2]; rat hepatic V1 receptors) | inhibition at 10 µM [1] | inhibition at 10 µM ([2]; 2 h, rat hepatic V1) | inhibition at 1 µM ([2]; 2 h, rat hepatic V1, at 1 μM) | SMILES |
| --- | --- | --- | --- | --- | --- |
| 29 nM | 59 nM |  |  |  | Cc1ccc(F)cc1C(=O)Nc1ccc(C(=O)N2Cc3sccc3Cc3ccccc32)cn1 [Example 2, N-[5-[(9,10-Dihydro-4H-thieno[2,3-c][1]benzazepin-9-yl)carbonyl]-2-pyridinyl]-5-fluoro-2-methylbenzamide] |
|  |  | 20% | 44% |  | Cc1ccc(F)cc1C(=O)Nc1ccc(C(=O)N2Cc3ccccc3Oc3ncccc32)cn1 [Example 4, N-[5-(Pyrido[2,3-b][1,4]benzoxazepin-5(6H)-ylcarbonyl)-2-pyridinyl]-5-fluoro-2-methylbenzamide] |
|  |  | 29% |  | 46% | O=C(c1ccc(-c2ccccc2)cc1)N1Cc2ccccc2Oc2ccccc21 [Example 26, 10-([1,1'-Biphenyl]-4-ylcarbonyl)-10,11-dihydrodibenz[b,f][1,4]oxazepine] |
|  |  | 33% | 53% |  | O=C(c1ccccc1)c1ccc(C(=O)N2Cc3ccccc3Oc3ccccc32)cc1 [Example 32, 10-(4-Benzoylbenzoyl)-10,11-dihydrodibenz[b,f][1,4]oxazepine] |
|  |  | 62% | 34% |  | Cc1ccc(F)cc1C(=O)Nc1ccc(C(=O)N2Cc3ccccc3CCc3ccccc32)cn1 [Example 45] |

Reference: patent publication US5849735A, “Tricyclic benzazepine vasopressin antagonists” (American Cyanamid Company, priority 1995, dated 1998)
